Assay results from patent publication US4818764A, “Imidazoline derivative and method of treating depression therewith” (priority 1980, dated 1989).
Entries after “also recorded” stand apart in the source; their conditions may differ. Structures can show the parent of a compound that is named as a salt.

Experiments:
[1] = tested on: DOCA hypertensive rats; test: Effect on blood pressure and heart rate of conscious DOCA hypertensive rats; type: in vivo, rat
Source text: Results are given in Table 5 in terms of peak percentage fall in B.P.

[2] = tested on: presynaptic α-adrenoreceptor; test: Reversal of guanabenz block of the anococcygeus muscle of the pithed rat, intravenous; type: in vivo; conditions: for Intravenous dose of antagonist causing 50% reversal of guanabenz block of anococcygeus muscle: pithed rat, guanabenz acetate 30 μg/kg i.v.
[3] = tested on: presynaptic α-adrenoreceptor; test: Reversal of clonidine inhibition of the anococcygeus muscle of the pithed rat, intravenous; type: in vivo; conditions: 0.3-1.0 mg/kg, i.v.; 1 Hz stimulation
Source text: In contrast to the rat vas deferens, both the pre- and postsynaptic adrenoreceptors of the rat anococcygeus muscle are readily accessible to exogenously applied agents and therefore this test can be used to distinguish selective presynaptic α-adrenoreceptor antagonists from non-selective agents. Contractions of the rat anococcygeus muscle induced by low frequency (1 Hz) electrical stimulation of spinal sympathetic outflow are inhibited by low doses of clonidine. Only selective presynaptic α-adrenoreceptor antagonists will reverse the inhibitory effects of clonidine.

[4] = tested on: presynaptic α-adrenoreceptor; test: Presynaptic α-adrenoreceptor antagonism in the pithed rat: vas deferens, intravenous activity; type: in vivo; conditions: for i.v. dose of antagonist causing 50% reversal of clonidine block on vas deferens: pithed rat, clonidine 100 μg/kg i.v., cumulative i.v. dosing, mean of minimum 4 rats
Experimental: This test model extends the evaluation of presynaptic α-adrenoreceptor antagonism versus clonidine on the rat vas deferens to the in vivo situation. Blood pressure and stimulation induced contractions of the vas deferens were monitored in pithed rats using the method of Brown, J., Doxey, J. C., Handley, S. and Virdee, N., Recent Advances in the Pharmacology of Adrenoceptors, Elsevier North Holland, 1978. Clonidine (100 μg/kg, i.v.) causes a prolonged pressor response and a prolonged inhibition of vas deferens contractions. The test drugs were injected intravenously in a cumulative dosing schedule and their abilities to reverse the inhibition of hypogastric nerve stimulation reflected their presynaptic antagonism.

[5] = tested on: postsynaptic α-adrenoreceptors (rat anococcygeus muscle); test: Postsynaptic α-adrenoreceptor antagonism vs noradrenaline contractions in isolated rat anococcygeus muscle; type: cell-based; conditions: mean of minimum 5 experiments, "<" means inactive at a concentration which would have given the pA indicated
Source text: (§1) This in vitro model is particularly useful as an initial screen for studying presynaptic activity in isolation since the physiological nature of the vas deferens tissue is such that the post synaptic receptors located therein are particularly inaccessible to exogenous agents. In consequence an alternative tissue, the rat anococcygeus muscle is used to establish postsynaptic α-adrenoreceptor activity. Antagonism of noradrenaline contractions is used to determine pA2 values at postsynaptic α-adrenoreceptors. The ratio of presynaptic α-adrenoreceptor antagonism (versus clonidine on the rat vas deferens) to postsynaptic α-adrenoreceptor antagonism (versus noradrenaline contractions on the rat anococcygeus muscle) is used to assess adrenoreceptor selectivity.

[6] = tested on: postsynaptic α-adrenoreceptor; test: Antagonism of clonidine postsynaptic effects (blood pressure increases) after oral dosing, pithed rat; type: in vivo
[7] = molecular target: T1, presynaptic α2-adrenoreceptor (rat vas deferens) (Rattus norvegicus, UniProt P22909); test: Presynaptic α-adrenoreceptor antagonism vs clonidine in isolated rat vas deferens (0.1 Hz stimulation); type: cell-based
T1 construct: Pre- and postsynaptic α-adrenoreceptor antagonism in isolated tissue experiments; from tissue; host or cells: isolated rat vas deferens
T1 sequence (P22909 1-465): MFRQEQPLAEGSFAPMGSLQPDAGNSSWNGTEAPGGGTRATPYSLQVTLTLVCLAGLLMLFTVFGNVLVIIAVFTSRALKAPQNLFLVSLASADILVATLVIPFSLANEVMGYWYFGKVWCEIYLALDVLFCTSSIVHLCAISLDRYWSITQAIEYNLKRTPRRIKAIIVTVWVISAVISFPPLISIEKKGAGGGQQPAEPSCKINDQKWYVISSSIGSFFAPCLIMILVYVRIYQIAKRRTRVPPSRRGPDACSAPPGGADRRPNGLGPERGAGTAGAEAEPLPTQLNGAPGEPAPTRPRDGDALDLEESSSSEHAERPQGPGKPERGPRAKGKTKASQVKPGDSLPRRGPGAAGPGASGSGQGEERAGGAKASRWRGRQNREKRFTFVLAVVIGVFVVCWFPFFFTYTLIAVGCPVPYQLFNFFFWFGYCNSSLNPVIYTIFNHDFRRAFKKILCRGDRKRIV
Source text: as §1

[8] = tested on: presynaptic α-adrenoreceptor; test: Presynaptic α-adrenoreceptor antagonism in the pithed rat: vas deferens, oral activity; type: in vivo; conditions: 1.0 and 5.0 mg/kg
Source text: Thirty minutes after oral administration, the rats were pithed so as to allow electrically-induced contractions of the vas deferens to be studied in situ.

[9] = tested on: clonidine-induced hypothermia; test: Antagonism of clonidine-induced hypothermia in mice; type: in vivo
[10] = tested on: postsynaptic α-adrenoreceptor; test: Pressor responses in the pithed rat on intravenous administration; type: in vivo; conditions: 1-10 mg/kg, i.v.

Cc1ccc(N(CC2=NCCN2)c2cccc(O)c2)cc1 [Phentolamine]
blood pressure effect (in words) ([1]; 1.0 mg/kg, oral): reduced blood pressure
peak percentage fall in B.P. ([1]; 1.0 mg/kg, oral): -16%
peak percentage fall in B.P. ([1]; 5.0 mg/kg, oral): -24%
heart rate effect (in words) ([1]; 20 mg/kg, oral): reflexly elevated
peak percentage fall in B.P. ([1]; 20.0 mg/kg, oral): -41%
heart rate effect (in words) ([1]; two smaller doses (1.0 and 5.0 mg/kg), oral): not greatly affected
presynaptic α-adrenoreceptor antagonist activity (in words) ([2]; cumulative i.v. dose of 1.4 mg/kg): devoid of presynaptic α-adrenoreceptor antagonist activity

COC(=O)[C@@H]1[C@H]2C[C@H]3c4[nH]c5ccccc5c4CCN3C[C@@H]2CC[C@@H]1O [Yohimbine]
reversal of the inhibitory action of clonidine on the anococcygeus muscle [3]: fully reversed

Cc1ccc(N(CC2=NCCN2)c2cccc(O)c2)cc1 [Phentolamine mesylate]
i.v. dose of antagonist causing 50% reversal of clonidine block on vas deferens [4]: 0.12 mg/kg
Intravenous dose of antagonist causing 50% reversal of guanabenz block of anococcygeus muscle [2]: > 1.4 mg/kg

COC(=O)[C@@H]1[C@H]2C[C@H]3c4[nH]c5ccccc5c4CCN3C[C@@H]2CC[C@@H]1O [Yohimbine HCl]
i.v. dose of antagonist causing 50% reversal of clonidine block on vas deferens [4]: 0.86 mg/kg
Intravenous dose of antagonist causing 50% reversal of guanabenz block of anococcygeus muscle [2]: 0.280 mg/kg

c1ccc2c(c1)OCC(C1=NCCN1)O2 (stereo not drawn) [Compound A, 2-[2-(1,4-Benzodioxanyl)]-2-imidazoline hydrochloride]
Postsynaptic antagonism pA2 vs Noradrenaline (anococcygeus) [5]: 6.2
peak percentage fall in B.P. ([1]; 1.0 mg/kg, oral): -4%
blood pressure effect (in words) ([1]; 1.0 mg/kg, oral, hydrochloride): did not significantly alter blood pressure; also recorded: does not possess antihypertensive activity
peak percentage fall in B.P. ([1]; 5.0 mg/kg, oral): -28%
peak percentage fall in B.P. ([1]; 20.0 mg/kg, oral): -39%
mean arterial blood pressure effect (in words) ([1]; 5.0 and 20.0 mg/kg, oral, hydrochloride): dose-related falls in mean arterial blood pressure
heart rate effect (in words) ([1]; three doses (1.0, 5.0 and 20.0 mg/kg), oral): No significant effect on heart rate
presynaptic α-adrenoreceptor antagonist potency, rank among compounds studied ([4]; pithed rat vas deferens, i.v., Table 2): clearly the most potent presynaptic α-adrenoreceptor antagonist of those studied
i.v. dose of antagonist causing 50% reversal of clonidine block on vas deferens [4]: 0.009 mg/kg
inhibition of the clonidine postsynaptic effects (blood pressure increases) ([6]; 1.0 mg/kg p.o.): No inhibition
inhibition of the clonidine postsynaptic effects (blood pressure increases) ([6]; 5.0 mg/kg p.o.): some antagonism was observed
presynaptic α-adrenoreceptor antagonist potency, rank among compounds studied ([7]; Table 1): the most potent presynaptic α-adrenoreceptor antagonist
presynaptic α-adrenoreceptor antagonist potency, rank among compounds studied ([2]; pithed rat anococcygeus, i.v.): the most potent presynaptic α-adrenoreceptor antagonist studied
Intravenous dose of antagonist causing 50% reversal of guanabenz block of anococcygeus muscle [2]: 0.021 mg/kg
antagonism of the presynaptic action of clonidine (in words) [8]: dose-dependent competitive antagonism
reversal of clonidine-induced hypothermia (in words) ([9]; 0.1-1.0 mg/kg, i.v.): statistically significant dose-related reversal

CC1(C2=NCCN2)Oc2ccccc2O1 [Compound B, 2-[2-(2-methyl-1,3-benzodioxyl)]-2-imidazoline hydrochloride]
Postsynaptic antagonism pA2 vs Noradrenaline (anococcygeus) [5]: < 4.4
blood pressure effect (in words) ([1]; 1.0 mg/kg, oral): significant antihypertensive effect
peak percentage fall in B.P. ([1]; 1.0 mg/kg, oral): -15%
peak percentage fall in B.P. ([1]; 5.0 mg/kg, oral): -25%
peak percentage fall in B.P. ([1]; 20.0 mg/kg, oral): -14%
maximum hypotensive effect following 20 mg/kg (in words) ([1]; 20 mg/kg, p.o. versus 5 mg/kg, p.o.): less than that produced by 5 mg/kg, p.o. compound B
dose-relation of the falls in blood pressure (in words) ([1]; 1-20 mg/kg, p.o.): not dose-related
maximum reversal of the inhibitory effects of clonidine on hypogastric nerve stimulation ([4]; cumulative i.v. dose 14.4 mg/kg): 66%
i.v. dose of antagonist causing 50% reversal of clonidine block on vas deferens [4]: 5.60 mg/kg
Kb ([7]; isolated rat vas deferens, 0.1 Hz, mean of minimum 5 experiments, "<" means inactive at a concentration which would have given the pA indicated, read-out: Presynaptic antagonism pA2 vs Clonidine (vas deferens) (converted)): 631 nM
Pre/postsynaptic ratio ([7]; presynaptic antagonism (vs clonidine, vas deferens) to postsynaptic antagonism (vs noradrenaline, anococcygeus)): > 67
pressor responses / postsynaptic α-adrenoreceptor agonist activity (in words) [10]: pressor responses in the pithed rat were seen
effect on clonidine-induced hypothermia (in words) ([9]; 30 mg/kg i.v.): potentiated the clonidine-induced hypothermia
reversal of clonidine-induced hypothermia (in words) ([9]; 1-10 mg/kg, i.v.): partial reversal
reversal of clonidine-induced hypothermia compared with vehicle (significance, in words) ([9]; 1-10 mg/kg, i.v.): not significantly different from animals treated with vehicle

CN1CCN2c3ccccc3Cc3ccccc3C2C1 (stereo not drawn) [Mianserin]
maximum reversal of the inhibitory effects of clonidine on hypogastric nerve stimulation ([4]; cumulative i.v. dose 4.4 mg/kg): 36%

CN1CCN2c3ccccc3Cc3ccccc3C2C1 (stereo not drawn) [Mianserin HCl]
i.v. dose of antagonist causing 50% reversal of clonidine block on vas deferens [4]: > 4.4 mg/kg
